Patent publication US20100168176A1, “NOVEL COMPOUNDS, PHARMACEUTICAL COMPOSITIONS CONTAINING SAME, AND METHODS OF USE FOR SAME” (FASGEN LLC, priority 2006, published 2010)
In brackets after ≈: the same amount, converted by molar mass.

How the values were obtained:
[1] = tested on: MCF-7 human breast cancer cells; test: XTT cytotoxicity assay, MCF-7 (M); type: cell-based; conditions: (M) or no code, MCF-7, 72 hours; for IC50: Homo sapiens, MCF7
Protocol: The XTT assay is a non-radioactive alternative for the [^51Cr] release cytotoxicity assay. XTT is a tetrazolium salt that is reduced to a formazan dye only by metabolically active, viable cells. The reduction of XTT is measured spectrophotometrically as OD490-OD650.
To measure the cytotoxicity of specific compounds against cancer cells, 9×10^3 MCF-7 human breast cancer cells, obtained from the American Type Culture Collection are plated per well in 96 well plates in DMEM medium with 10% fetal bovine serum, insulin, penicillin, and streptomycin. Following overnight culture at 37° C. and 5% CO2, the compounds to be tested, dissolved in DMSO, are added to the wells in 1 μl volume at the following concentrations: 80, 40, 20, 10, 5, 2.5, 1.25, and 0.625 μg/ml in triplicate. Additional concentrations are tested if required. 1 μl of DMSO is added to triplicate wells are the vehicle control. C75 is run at 40, 20, 10, […], 10, and 5 in triplicate as positive controls.
After 72 hours of incubation, cells are incubated for 4 hours with the XTT reagent as per manufacturer's instructions (Cell Proliferation Kit II (XTT) Roche). Plates are read at OD490 and OD650 on a Molecular Devices SpectraMax Plus Spectrophotometer. Three wells containing the XTT reagent without cells serve as the plate blank. XTT data are reported as OD490-OD650. Averages and standard error of the mean are computed using SOFTmax Pro software ([…]).
The IC50 for the compounds is defined as the concentration of drug leading to a 50% reduction in OD400-OD650 compared to controls. The OD400-OD650 are computed by the SOFTmax PRO software (Molecular Devices) for each compound concentration. IC50 is calculated by linear regression, plotting the FAS activity as percent of control versus drug concentrations. Linear regression, best-fit line, r^2, and 95% confidence intervals are determined using Prism Version 3.0 (Graph Pad Software).

OV = test: XTT cytotoxicity assay, OV; type: cell-based
[2] = tested on: MCF-7 human breast cancer cells; test: [14C]acetate incorporation into total lipids; type: cell-based; conditions: MCF7
Protocol: Measurement of [^14 C]acetate Incorporation into Total Lipids and Determination of IC50 of Compounds
This assay measures the incorporation of [^14C]acetate into total lipids and is a measure of fatty acid synthesis pathway activity in vitro. It is utilized to measure inhibition of fatty acid synthesis in vitro.
MCF-7 human breast cancer cells cultured as above, are plated at 5×10^4 cells per well in 24-well plates. Following overnight incubation, the compounds to be tested, solubilized in DMSO, are added at 5, 10, and 20 μg/ml in triplicate, with lower concentrations tested if necessary. DMSO is added to triplicate wells for a vehicle control. C75 is run at 5 and 10 μg/ml in triplicate as positive controls. After 4 hours of incubation, 0.25 μCi of [^14C]acetate (10 μl volume) is added to each well.
After 2 hours of additional incubation, medium is aspirated from the wells and 800 μl of chloroform:methanol (2:1) and 700 μl of 4 mM MgCl2 is added to each well. Contents of each well are transferred to 1.5 Eppendorf tubes, and spun at full-speed for 2 minutes in a high-speed Eppendorf Microcentrifuge 5415D. After removal of the aqueous (upper) layer, an additional 700 μl of chloroform:methanol (2:1) and 500 μl of 4 mM MgCl2 are added to each tube and then centrifuged for 1 minutes as above. The aqueous layer is removed with a Pasteur pipette and discarded. An additional 400 μl of chloroform:methanol (2:1) and 200 μl of 4 mM MgCl2 are added to each tube, then centrifuged and aqueous layer is discarded. The lower (organic) phase is transferred into a scintillation vial and dried at 40° C. under N2 gas. Once dried, 3 ml of scintillant (APB #NBC5104) is added and vials are counted for ^14C. The Beckman Scintillation counter calculates the average cpm values for triplicates.
The IC50 for the compounds is defined as the concentration of drug leading to a 50% reduction in [^14C]acetate incorporation into lipids compared to controls. This is determined by plotting the average cpm for each inhibitor concentration tested, performing linear regression and computing the best-fit line, r^2 values, and 95% confidence intervals. The average cpm values are computed by the Beckman scintillation counter (Model LS6500) for each compound concentration. Computation of linear regression, best-fit line, r^2, and 95% confidence intervals are calculated using Prism Version 3.0 (Graph Pad Software).

H = test: Crystal violet cell growth assay, H; type: cell-based; conditions: read-out: Cr. Violet (IC50)
Protocol: Crystal Violet Cell Growth Assay
The crystal violet assay measure cell growth but not cytotoxicity. This assay employs crystal violet staining of fixed cells in 96-well plates with subsequent solubilization and measurement of OD490 on a spectrophotometer. The OD490 corresponds to cell growth per unit time measured. Cells are treated with the compounds of interest or vehicle controls and IC50 for each compound is computed.
To measure the cytotoxicity of specific compounds against cancer cells, 5×10^4 MCF-7 human breast cancer cells, obtained from the American Type Culture Collection are plated per well in 24 well plates in DMEM medium with 10% fetal bovine serum, penicillin, and streptomycin. Following overnight culture at 37° C. and 5% CO2, the compounds to be tested, dissolved in DMSO, are added to the wells in 1 μl volume at the following concentrations: 50, 40, 30, 20, and 10 μg/ml in triplicate. Additional concentrations are tested if required. 1 μl of DMSO is added to triplicate wells are the vehicle control. C75 is run at 10, and 5 μg/ml in triplicate as positive controls.
After 72 hours of incubation, cells are stained with 0.5 ml of Crystal Violet stain (0.5% in 25% methanol) in each well. After 10 minutes, wells are rinsed, air dried, and then solubilized with 0.5 ml 10% sodium dodecylsulfate with shaking for 2 hours. Following transfer of 100 μl from each well to a 96-well plate, plates are read at OD490 on a Molecular Devices SpectraMax Plus Spectrophotometer Average OD490 values are computed using SOFTmax Pro Software (Molecular Devices) and IC50 values are determined by linear regression analysis using Prism version 3.02 (Graph Pad Software, San Diego).

[3] = Weight loss screen in Balb/C mice; type: in vivo; conditions: 60 mg/kg intraperitoneally
Protocol: Weight Loss Screen for Novel FAS Inhibitors
Balb/C mice (Jackson Labs) are utilized for the initial weight loss screening. Animals are housed in temperature and 12 hour day/night cycle rooms and fed mouse chow and water ad lib. Three mice are utilized for each compound tested with vehicle controls in triplicate per experiment. For the experiments, mice are housed separately for each compound tested three mice to a cage. Compounds are diluted in DMSO at 10 mg/ml and mice are injected intraperitoneally with 60 mg/kg in approximately 100 μl of DMSO or with vehicle alone. Mice are observed and weighed daily; average weights and standard errors are computed with Excel (Microsoft). The experiment continues until treated animals reach their pretreatment weights.

FAO = FAO SC 150 / FAO Max; conditions: for FAO Max: at the concentration given under E18
Raji cells = conditions: cited from earlier work
[4] = biological target: rat liver acyl-CoA synthetase; conditions: rat liver enzyme; read-out: 50% inhibition of rat liver acyl-CoA synthetase; cited from earlier work
[5] = tested on: Mycobacterium tuberculosis; conditions: in vitro; cited from earlier work
viral HIV protease = viral HIV protease (Human immunodeficiency virus type 1 group M subtype B, UniProt P04585); conditions: cited from earlier work
purified human FAS = biological target: T1, purified human FAS (Homo sapiens, UniProt P49327); test: FAS enzymatic activity (malonyl-CoA dependent NADPH oxidation, OD340); type: biochemical; conditions: purified human FAS from ZR-75-1 cells
T1 construct: Human FAS was purified from cultured ZR-75-1 human breast cancer cells; endogenous in cells; host or cells: ZR-75-1 human breast cancer cells (ATCC); Purified by hypotonic lysis, PEG precipitations and Mono Q anion exchange
Protocol: Purification of FAS from ZR-75-1 Human Breast Cancer Cells.
Human FAS was purified from cultured ZR-75-1 human breast cancer cells obtained from the American Type Culture Collection. The procedure, adapted from Linn et al., 1981, and Kuhajda et al., 1994, utilizes hypotonic lysis, successive polyethyleneglycol (PEG) precipitations, and anion exchange chromatography. ZR-75-1 cells are cultured at 37° C. with 5% CO2 in RPMI culture medium with 10% fetal bovine serum, penicillin and streptomycin.
Ten T150 flasks of confluent cells are lysed with 1.5 ml lysis buffer (20 mM Tris-HCl, pH 7.5, 1 mM EDTA, 0.1 mM phenylmethanesulfonyl fluoride (PMSF), 0.1% Igepal CA-630) and dounce homogenized on ice for 20 strokes. The lysate is centrifuged in JA-20 rotor (Beckman) at 20,000 rpm for 30 minutes at 4° C. and the supernatant is brought to 42 ml with lysis buffer. A solution of 50% PEG 8000 in lysis buffer is added slowly to the supernatant to a final concentration of 7.5%. After rocking for 60 minutes at 4° C., the solution is centrifuged in JA-20 rotor (Beckman) at 15,000 rpm for 30 minutes at 4° C. Solid PEG 8000 is then added to the supernatant to a final concentration of 15%. After the rocking and centrifugation is repeated as above, the pellet is resuspended overnight at 4° C. in 10 ml of Buffer A (20 mM K2HPO4, pH 7.4). […] FAS protein concentration is determined using the Coomassie Plus Protein Assay Reagent (Pierce) according to manufacturer's specifications using BSA as a standard. […]
FAS activity is measured by monitoring the malonyl-CoA dependent oxidation of NADPH spectrophotometrically at OD340 in 96-well plates (Dils et al and Arslanian et al, 1975). […]
The assay is performed on a Molecular Devices SpectraMax Plus Spectrophotometer. […] Using the kinetic protocol, the wells are blanked on duplicate wells containing 100 μl of 100 mM K2HPO4, pH 6.5 and the plate is read at OD340 at 10 sec intervals for 5 minutes to measure any malonyl-CoA independent oxidation of NADPH. […] The plate is read again as above with the kinetic protocol to measure the malonyl-CoA dependent NADPH oxidation. […]

T1 sequence (P49327 whole entry): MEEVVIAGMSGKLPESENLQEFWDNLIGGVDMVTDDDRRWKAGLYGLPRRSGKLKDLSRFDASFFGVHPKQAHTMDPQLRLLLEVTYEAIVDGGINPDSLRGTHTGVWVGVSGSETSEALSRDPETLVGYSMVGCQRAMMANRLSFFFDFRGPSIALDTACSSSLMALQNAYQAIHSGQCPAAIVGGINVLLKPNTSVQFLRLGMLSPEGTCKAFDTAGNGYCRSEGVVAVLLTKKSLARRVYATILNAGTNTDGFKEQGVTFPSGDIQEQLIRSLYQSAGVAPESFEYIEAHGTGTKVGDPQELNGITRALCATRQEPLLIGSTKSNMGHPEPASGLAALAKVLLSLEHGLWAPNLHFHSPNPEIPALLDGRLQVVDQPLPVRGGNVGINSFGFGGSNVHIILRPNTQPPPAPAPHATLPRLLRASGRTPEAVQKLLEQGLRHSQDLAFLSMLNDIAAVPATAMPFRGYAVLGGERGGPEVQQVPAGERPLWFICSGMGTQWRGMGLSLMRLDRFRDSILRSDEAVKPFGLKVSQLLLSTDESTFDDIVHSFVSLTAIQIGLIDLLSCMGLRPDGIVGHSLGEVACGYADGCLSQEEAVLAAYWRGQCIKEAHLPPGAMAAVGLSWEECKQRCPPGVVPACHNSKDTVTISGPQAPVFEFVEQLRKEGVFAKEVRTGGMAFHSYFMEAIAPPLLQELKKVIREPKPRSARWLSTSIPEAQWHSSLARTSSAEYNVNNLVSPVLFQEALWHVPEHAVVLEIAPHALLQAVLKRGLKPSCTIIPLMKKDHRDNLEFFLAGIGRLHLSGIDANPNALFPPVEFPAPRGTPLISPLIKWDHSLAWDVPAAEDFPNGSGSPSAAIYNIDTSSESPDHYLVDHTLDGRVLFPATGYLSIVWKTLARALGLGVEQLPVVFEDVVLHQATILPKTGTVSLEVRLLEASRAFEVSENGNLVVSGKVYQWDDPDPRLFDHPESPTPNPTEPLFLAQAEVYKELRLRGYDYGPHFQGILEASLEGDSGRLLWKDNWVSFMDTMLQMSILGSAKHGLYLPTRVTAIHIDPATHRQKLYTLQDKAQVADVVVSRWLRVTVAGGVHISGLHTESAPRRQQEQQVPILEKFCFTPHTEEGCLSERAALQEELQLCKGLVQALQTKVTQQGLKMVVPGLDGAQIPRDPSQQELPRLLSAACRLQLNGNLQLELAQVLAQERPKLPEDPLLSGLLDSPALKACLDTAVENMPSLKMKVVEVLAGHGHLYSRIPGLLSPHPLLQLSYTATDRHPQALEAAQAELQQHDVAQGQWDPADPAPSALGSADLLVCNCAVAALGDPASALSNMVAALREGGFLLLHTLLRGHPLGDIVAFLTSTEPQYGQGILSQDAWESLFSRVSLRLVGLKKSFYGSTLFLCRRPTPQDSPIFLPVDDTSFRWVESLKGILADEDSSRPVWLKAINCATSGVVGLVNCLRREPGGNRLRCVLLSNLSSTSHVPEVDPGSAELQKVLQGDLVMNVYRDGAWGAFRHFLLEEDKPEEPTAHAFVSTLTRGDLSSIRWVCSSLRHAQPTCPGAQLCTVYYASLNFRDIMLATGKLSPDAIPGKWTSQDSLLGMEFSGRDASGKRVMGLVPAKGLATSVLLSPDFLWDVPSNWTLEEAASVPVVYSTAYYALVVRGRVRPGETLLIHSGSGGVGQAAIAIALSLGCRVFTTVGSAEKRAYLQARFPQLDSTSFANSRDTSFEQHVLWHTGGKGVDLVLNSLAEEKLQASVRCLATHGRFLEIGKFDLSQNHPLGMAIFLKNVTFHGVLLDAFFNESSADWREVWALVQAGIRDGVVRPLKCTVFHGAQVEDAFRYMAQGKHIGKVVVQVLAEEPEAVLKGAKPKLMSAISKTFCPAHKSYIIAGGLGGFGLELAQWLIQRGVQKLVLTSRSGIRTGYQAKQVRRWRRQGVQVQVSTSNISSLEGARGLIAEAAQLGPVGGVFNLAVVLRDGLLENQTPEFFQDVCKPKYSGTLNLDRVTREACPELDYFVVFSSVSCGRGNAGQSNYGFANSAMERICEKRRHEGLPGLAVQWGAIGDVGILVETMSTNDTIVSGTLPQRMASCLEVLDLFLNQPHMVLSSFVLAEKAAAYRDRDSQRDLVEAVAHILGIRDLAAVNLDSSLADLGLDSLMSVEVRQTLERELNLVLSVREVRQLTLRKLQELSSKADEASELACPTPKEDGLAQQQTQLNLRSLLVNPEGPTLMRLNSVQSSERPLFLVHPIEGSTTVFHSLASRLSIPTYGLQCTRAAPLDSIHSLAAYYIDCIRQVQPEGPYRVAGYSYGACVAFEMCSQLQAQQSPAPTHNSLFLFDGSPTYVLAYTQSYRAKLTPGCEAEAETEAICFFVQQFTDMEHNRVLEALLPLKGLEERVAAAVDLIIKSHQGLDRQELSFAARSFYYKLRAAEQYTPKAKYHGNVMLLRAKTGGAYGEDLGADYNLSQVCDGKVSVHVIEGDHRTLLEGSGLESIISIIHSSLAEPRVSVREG

Compound	IC50 [1] [µg/mL]	IC50 (OV) [µg/mL]	IC50 [2] [µg/mL]	IC50 (H) [µg/mL]	FAO Max: concentration at which the maximum was seen (FAO)	FAO SC 150 (FAO)	FAO Max (FAO)	further results
CCCCCCCCC1(C)SC(=O)C=C1OCC(=O)NNc1ccc(C(F)(F)F)cc1 (centres unmarked) [Compound 12, (5-Methyl-5-octyl-2-oxo-thiophen-4-yloxy)-acetic-acid-N′-(4-trifluoromethylphenyl)-hydrazide]	5.7 (≈ 12.4 µM)	9.6 (≈ 20.9 µM)	11.3 (≈ 24.6 µM)	4.8 (≈ 10.5 µM)	1.56 μg/ml ug/ml	Neg	118% at	Weight Loss ([3]; day 2): 60 mg/kg: 2.7% (day 2)
CCCCCCCCC1(C)SC(=O)C=C1OCC(=O)NNc1cc(C(F)(F)F)ccc1Cl (centres unmarked) [Compound 16, (5-Methyl-5-octyl-2-oxo-thiophen-4-yloxy)-acetic-acid-N′-[2-chloro-5-(trifluoromethyl)phenyl]-hydrazide]	6 (≈ 12.2 µM)	7.2 (≈ 14.6 µM)	16.5 (≈ 33.5 µM)	5.8 (≈ 11.8 µM)	6.25 µg/mL	Neg	137% @	Weight Loss ([3]; day 3): 60 mg/kg: 1.7 % (day 3)
CCCC=CCC=CC=CC=NN=NO [Triacsin C, 1-hydroxy-3-(E, E, E-2′,4′,7′-undecatrienylidine) triazene]	–	–	–	–	–	–	–	growth inhibition in Raji cells at (Raji cells): 1.0 µM; IC50 [4]: 8.7 µM
C/C=C/C/C=C/CCC(=O)[C@H]1O[C@H]1C(N)=O [cerulenin, (2S,3R)-2,3-epoxy-4-oxo-7,10 dodecadienoyl amide]	–	–	–	–	–	–	–	activity against Mycobacterium tuberculosis [5]: no activity was found; inhibition of viral HIV protease at (viral HIV protease): 5 mg/mL
(5-Methyl-5-hexyl-2-oxo-thiophen-4-yloxy)-acetic-acid-M-(4-chlorophenyl)-hydrazide [Compound 21]	–	–	–	–	0.024 μg/ml ug/ml	Neg	104% at	FAS (IC50) (purified human FAS): Neg; XTT (IC50) [1]: 9.8 μg/ml (M) ug/ml; XTT (IC50) (OV): 11.2 µg/mL
